Experimental data: ChEMBL document CHEMBL6083209, “Pyridazinone-based derivatives as anticancer agents endowed with anti-microbial activity: molecular design, synthesis, and biological investigation” (RSC Med Chem, 2024)
Converted amounts (≈) assume the structure as drawn.

What was measured:
Staphylococcus aureus [1] = experiment: Antimicrobial activity against Staphylococcus aureus; assay type: functional
Escherichia coli = experiment: Antimicrobial activity against Escherichia coli ATCC 25922 by broth microdilution method
Candida albicans = experiment: Antimicrobial activity against Candida albicans ATCC 10231 by broth microdilution method
Staphylococcus aureus [2] = experiment: Antimicrobial activity against Staphylococcus aureus ATCC 29213 by broth microdilution method
[3] = target: Vascular endothelial growth factor receptor 2 (Homo sapiens, UniProt P35968); experiment: Inhibition of VEGFR2 (unknown origin)
Vascular endothelial growth factor receptor 2, sequence (P35968 whole entry): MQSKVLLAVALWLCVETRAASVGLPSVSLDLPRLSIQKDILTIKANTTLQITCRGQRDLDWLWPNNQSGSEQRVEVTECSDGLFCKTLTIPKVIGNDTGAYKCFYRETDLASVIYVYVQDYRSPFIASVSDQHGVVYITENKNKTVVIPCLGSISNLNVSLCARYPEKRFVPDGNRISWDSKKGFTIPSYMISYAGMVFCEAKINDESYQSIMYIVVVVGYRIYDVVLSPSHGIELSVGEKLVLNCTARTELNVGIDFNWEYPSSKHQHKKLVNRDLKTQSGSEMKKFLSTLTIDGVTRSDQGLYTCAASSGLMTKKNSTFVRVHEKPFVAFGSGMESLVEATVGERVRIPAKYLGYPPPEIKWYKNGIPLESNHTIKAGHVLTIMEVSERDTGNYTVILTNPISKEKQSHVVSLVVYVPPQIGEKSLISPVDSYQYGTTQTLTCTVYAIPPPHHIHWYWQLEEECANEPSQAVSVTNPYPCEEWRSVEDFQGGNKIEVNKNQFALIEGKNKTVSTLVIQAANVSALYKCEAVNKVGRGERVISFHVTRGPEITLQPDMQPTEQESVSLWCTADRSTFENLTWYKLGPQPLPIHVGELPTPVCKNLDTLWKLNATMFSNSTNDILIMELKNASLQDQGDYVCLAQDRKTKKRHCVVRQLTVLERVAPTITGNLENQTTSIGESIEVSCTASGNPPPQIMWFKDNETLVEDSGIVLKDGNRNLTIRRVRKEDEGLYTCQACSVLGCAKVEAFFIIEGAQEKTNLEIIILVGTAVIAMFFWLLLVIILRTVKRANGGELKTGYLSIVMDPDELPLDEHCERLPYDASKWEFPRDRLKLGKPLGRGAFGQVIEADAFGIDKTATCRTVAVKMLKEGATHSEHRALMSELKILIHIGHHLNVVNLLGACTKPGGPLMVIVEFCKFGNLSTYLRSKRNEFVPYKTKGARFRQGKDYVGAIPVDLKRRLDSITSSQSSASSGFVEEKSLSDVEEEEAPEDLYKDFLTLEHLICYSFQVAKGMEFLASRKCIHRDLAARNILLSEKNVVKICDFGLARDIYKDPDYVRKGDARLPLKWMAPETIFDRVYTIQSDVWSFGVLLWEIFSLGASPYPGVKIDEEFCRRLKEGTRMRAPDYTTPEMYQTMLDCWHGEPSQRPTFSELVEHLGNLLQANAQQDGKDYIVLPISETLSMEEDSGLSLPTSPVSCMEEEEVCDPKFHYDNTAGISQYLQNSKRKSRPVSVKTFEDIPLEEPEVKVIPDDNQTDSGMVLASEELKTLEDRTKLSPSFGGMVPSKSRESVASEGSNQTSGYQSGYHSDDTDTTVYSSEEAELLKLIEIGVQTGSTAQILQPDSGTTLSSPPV

SMILES: N#Cc1ccc(Oc2ccc3cccc(NC(=O)Nc4ccc(Cl)c(C(F)(F)F)c4)c3c2)cc1
- MIC (Staphylococcus aureus [1]): 1 µg/mL (≈ 2.08 µM)

SMILES: O=c1ccc(-c2ccc(NC(=S)Nc3ccc(Cl)c(Cl)c3)cc2)n[nH]1
- MIC (Escherichia coli): 512 µg/mL (≈ 1310 µM)
- MIC (Candida albicans): 32 µg/mL (≈ 81.8 µM)
- MIC (Staphylococcus aureus [2]): 128 µg/mL (≈ 327 µM)

SMILES: O=c1ccc(-c2ccc(NC(=S)Nc3cccc(Cl)c3)cc2)n[nH]1
- MIC (Escherichia coli): 256 µg/mL (≈ 717 µM)
- MIC (Candida albicans): 16 µg/mL (≈ 44.8 µM)
- MIC (Staphylococcus aureus [2]): 128 µg/mL (≈ 359 µM)

SMILES: O=C(NC(=S)Nc1ccc(Cl)cn1)c1ccc(N2CCCCC2)c([N+](=O)[O-])c1
- MIC (Staphylococcus aureus [1]): 0.06 µg/mL (≈ 0.143 µM)

SMILES: O=c1ccc(/C=C/c2ccc(NS(=O)(=O)c3ccc(Cl)c(Cl)c3)cc2)n[nH]1
- MIC (Escherichia coli): 512 µg/mL (≈ 1210 µM)
- MIC (Candida albicans): 512 µg/mL (≈ 1210 µM)
- MIC (Staphylococcus aureus [2]): 512 µg/mL (≈ 1210 µM)

SMILES: O=C(NC(=S)Nc1ccc(-c2ccc(=O)[nH]n2)cc1)c1cccc(Br)c1
- MIC (Escherichia coli): 256 µg/mL (≈ 596 µM)
- MIC (Candida albicans): 512 µg/mL (≈ 1190 µM)
- MIC (Staphylococcus aureus [2]): 16 µg/mL (≈ 37.3 µM)

SMILES: O=C(NC(=S)Nc1ccc(-c2ccc(=O)[nH]n2)cc1)c1ccccc1
- MIC (Escherichia coli): 256 µg/mL (≈ 731 µM)
- MIC (Candida albicans): 512 µg/mL (≈ 1460 µM)
- MIC (Staphylococcus aureus [2]): 256 µg/mL (≈ 731 µM)

SMILES: O=c1ccc(-c2ccc(NS(=O)(=O)c3ccc(Cl)c(Cl)c3)cc2)n[nH]1
- MIC (Escherichia coli): 1020 µg/mL (≈ 2580 µM)
- MIC (Candida albicans): 256 µg/mL (≈ 646 µM)
- MIC (Staphylococcus aureus [2]): 512 µg/mL (≈ 1290 µM)

SMILES: O=C1CCC(c2ccc(NC(=S)NC(=O)c3ccc(Cl)cc3)cc2)=NN1
- MIC (Escherichia coli): 256 µg/mL (≈ 662 µM)
- MIC (Candida albicans): 512 µg/mL (≈ 1320 µM)
- MIC (Staphylococcus aureus [2]): 512 µg/mL (≈ 1320 µM)

SMILES: O=C(NC(=S)Nc1ccc(-c2ccc(=O)[nH]n2)cc1)c1ccc(F)c(Cl)c1
- MIC (Escherichia coli): 256 µg/mL (≈ 635 µM)
- MIC (Candida albicans): 512 µg/mL (≈ 1270 µM)
- MIC (Staphylococcus aureus [2]): 512 µg/mL (≈ 1270 µM)

SMILES: N#Cc1ccc(Oc2cccc(NC(=O)Nc3ccc(Cl)c(C(F)(F)F)c3)c2)c(F)c1
- MIC (Staphylococcus aureus [1]): 0.5 µg/mL (≈ 1.11 µM)

SMILES: O=C(NC(=S)Nc1ccc(-c2ccc(=O)[nH]n2)cc1)c1c(Cl)cc(Cl)cc1Cl
- MIC (Escherichia coli): 256 µg/mL (≈ 564 µM)
- MIC (Candida albicans): 512 µg/mL (≈ 1130 µM)
- MIC (Staphylococcus aureus [2]): 128 µg/mL (≈ 282 µM)

SMILES: O=C(Nc1ccc(Oc2ccc(=O)[nH]n2)cc1)Nc1ccc(Cl)c(C(F)(F)F)c1
- MIC (Staphylococcus aureus [1]): > 128 µg/mL

SMILES: O=C(Nc1ccc(-c2ccc(=O)[nH]n2)cc1)Nc1ccc(Cl)c(C(F)(F)F)c1
- MIC (Staphylococcus aureus [1]): > 128 µg/mL
- IC50 [3]: 1800 nM

SMILES: O=C1CCC(c2ccc(NC(=S)NC(=O)c3ccc(Br)cc3)cc2)=NN1
- MIC (Escherichia coli): 256 µg/mL (≈ 594 µM)
- MIC (Candida albicans): 512 µg/mL (≈ 1190 µM)
- MIC (Staphylococcus aureus [2]): 512 µg/mL (≈ 1190 µM)

SMILES: O=C(NC(=S)Nc1ccc(-c2ccc(=O)[nH]n2)cc1)c1ccc(Cl)c(Cl)c1
- MIC (Escherichia coli): > 1020 µg/mL
- MIC (Candida albicans): 512 µg/mL (≈ 1220 µM)
- MIC (Staphylococcus aureus [2]): > 1020 µg/mL

SMILES: O=c1ccc(-c2ccc(NS(=O)(=O)c3cccc(F)c3)cc2)n[nH]1
- MIC (Escherichia coli): 1020 µg/mL (≈ 2970 µM)
- MIC (Candida albicans): 256 µg/mL (≈ 741 µM)
- MIC (Staphylococcus aureus [2]): 512 µg/mL (≈ 1480 µM)

SMILES: O=c1ccc(-c2ccc(NS(=O)(=O)c3cccc(Br)c3)cc2)n[nH]1
- MIC (Escherichia coli): 256 µg/mL (≈ 630 µM)
- MIC (Candida albicans): 64 µg/mL (≈ 158 µM)
- MIC (Staphylococcus aureus [2]): 512 µg/mL (≈ 1260 µM)

SMILES: O=C(Nc1ccc2c(c1)OC(F)(F)O2)Nc1ccc(Cl)c(C(F)(F)F)c1
- MIC (Staphylococcus aureus [1]): 0.3 µg/mL (≈ 0.76 µM)

SMILES: O=C(Nc1ccc(Cl)c(C(F)(F)F)c1)C(CCl)C(=O)Nc1ccc(Cl)c(C(F)(F)F)c1
- MIC (Staphylococcus aureus [1]): 0.5 µg/mL (≈ 0.985 µM)

SMILES: O=c1ccc(-c2ccc(NC(=S)Nc3ccc(Br)cc3)cc2)n[nH]1
- MIC (Escherichia coli): 512 µg/mL (≈ 1280 µM)
- MIC (Candida albicans): 256 µg/mL (≈ 638 µM)
- MIC (Staphylococcus aureus [2]): 128 µg/mL (≈ 319 µM)

SMILES: O=c1ccc(-c2ccc(NC(=S)Nc3c(Cl)cc(Cl)cc3Cl)cc2)n[nH]1
- MIC (Escherichia coli): 256 µg/mL (≈ 601 µM)
- MIC (Candida albicans): 64 µg/mL (≈ 150 µM)
- MIC (Staphylococcus aureus [2]): 128 µg/mL (≈ 301 µM)

SMILES: O=C1CCC(c2ccc(NC(=S)NC(=O)c3ccccc3)cc2)=NN1
- MIC (Escherichia coli): 256 µg/mL (≈ 726 µM)
- MIC (Candida albicans): 512 µg/mL (≈ 1450 µM)
- MIC (Staphylococcus aureus [2]): 512 µg/mL (≈ 1450 µM)

SMILES: O=C(NC(=S)Nc1ccc(-c2ccc(=O)[nH]n2)cc1)c1ccc([N+](=O)[O-])cc1
- MIC (Escherichia coli): > 1020 µg/mL
- MIC (Candida albicans): 512 µg/mL (≈ 1290 µM)
- MIC (Staphylococcus aureus [2]): > 1020 µg/mL

SMILES: O=c1ccc(-c2ccc(NC(=S)Nc3cccc(F)c3)cc2)n[nH]1
- MIC (Escherichia coli): > 1020 µg/mL
- MIC (Candida albicans): 64 µg/mL (≈ 188 µM)
- MIC (Staphylococcus aureus [2]): 512 µg/mL (≈ 1500 µM)
